From US20250235543A1, “MODIFIED PROTEINS AND PROTEIN DEGRADERS” (Cullgen (Shanghai), Inc., priority 2021, published 2025) come the findings set out here.

One test addresses T1, DDB1 (Homo sapiens, UniProt Q16531, D705G/DEL396-460/DEL463-701/I704S/T703N).
T1 construct: His6 (N, cleaved yes); TEV protease cleavage site (N, cleaved yes); made in house; host or cells: SF9 insect cells, Bac-to-Bac baculovirus, pFastBacHTB vector
Briefly: SPR binding assay to immobilized DDB1ΔBPB. As to conditions: binding affinities to DDB1. The procedure: The binding affinities of heterobifunctional compounds to DDB1 were determined by SPR assay (FIG. 1A-1B). Purified DDB1ΔBPB proteins were immobilized on a CM5 sensor chip, and a dose range of compound solutions were injected in multi-cycle kinetic format. Data were fit to a steady state model to provide equivalent dissociation constants (Kd).
Human DDB1ΔBPB (UniProt: Q16531. BPB domain, aa 396 to 705, is replaced with a GNGNSG linker) coding sequences were cloned into pFastBacHTB vector and were expressed in SF9 cells using Bac-to-Bac baculovirus expression system (Thermo Fisher Scientific). The expression constructs include an N-terminal His6-tag to facilitate the purification, and a TEV protease cleavage site in between. DDB1ΔBPB proteins were obtained from supernatant of cell lysates and purified through sequential application of Ni affinity column (Ni-NTA column, Bio-Rad) and size-exclusion column (Superdex 200 16/600GL column, GE Healthcare) chromatography. Protein tags were cleaved off by TEV protease, and the resulting untagged proteins were further purified by Ni affinity column. Purified proteins were verified by immunoblotting, analytic SEC, and LC-MS.
SPR studies were performed on a Biacore X100 plus instrument (GE Healthcare). Immobilization of purified DDB1ΔBPB was carried out at 25° C. using a CM5 sensor chip. The surface was pre-equilibrated in HBS-EP running buffer (10 mM HEPES, pH7.4, 150 mM NaCl, 3 mM EDTA, 0.05% P20), before it was activated with EDC/NHS. DDB1ΔBPB proteins were immobilized by amine coupling to a density of 10,000-12,000 resonance units (RUs) on flow cell FC2, whereas flow cell FC1 was used as reference. Both protein immobilized and reference surfaces were deactivated with 1M ethanolamine. All interaction experiments were performed at 25° C. Test compounds were prepared and serially diluted in HBS-EP running buffer containing final 5% DMSO (6-point two-fold serial dilution, 100 μM-3.125 μM final concentration of compounds). Compound solutions were injected individually in multi-cycle kinetic format without regeneration (flow rate 30 μl/min, association time 120 s, dissociation time 120 s). Sensorgrams from reference surfaces and blank injections were subtracted from the raw data (double-referencing) and the data was solvent-corrected prior to analysis. All data were fit to steady state affinity model using Biacore Evaluation Software to provide equivalent dissociation constants (Kd).

The test system of a further test is cyclin D1. Briefly: Cyclin D1 percentage degradation in Calu-1 cells (immunoblotting). Type of test: cell-based. The note with it: 16 hours. The procedure, abridged: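 Cells were rinsed once in cold PBS and lysed in cold RIPA buffer containing protease and phosphatase inhibitors, with gentle agitation at 4° C. for 30 min. Lysates were spun at 13,000 rpm for 10 min at 4° C., protein was measured by BCA, and samples were boiled in Laemmli buffer at 99° C. for 5 min before SDS-PAGE immunoblotting.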
(In general: In western blotting, separated proteins are transferred to a membrane and probed.)

A further test addresses T2, CDK4 (Homo sapiens, UniProt P11802).
T2 construct: endogenous in cells; host or cells: Calu-1
Briefly: CDK4 percentage degradation in Calu-1 cells (immunoblotting). The note with it: Calu-1 cells, 16 hours; for inhibition at 0.2 µM: 200 nM, read-out: CDK4 Degradation (200 nM). The class given is cell-based. The procedure, abridged:
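Cultured cells were rinsed once in cold PBS and lysed in cold RIPA buffer containing protease and phosphatase inhibitors, with gentle agitation at 4° C. for 30 min. Lysates were centrifuged at 13,000 rpm for 10 min at 4° C., and protein was quantified by BCA. Samples were then separated by SDS-PAGE, detected with ECL, and the CDK4 bands quantified in Image Lab.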

SMILES strings stand for the structures. Some results are limits rather than exact numbers.

T1 sequence (Q16531 other isoform, or with tags, fused parts or gaps DEL396-460/DEL463-701/T703N/I704S/D705G): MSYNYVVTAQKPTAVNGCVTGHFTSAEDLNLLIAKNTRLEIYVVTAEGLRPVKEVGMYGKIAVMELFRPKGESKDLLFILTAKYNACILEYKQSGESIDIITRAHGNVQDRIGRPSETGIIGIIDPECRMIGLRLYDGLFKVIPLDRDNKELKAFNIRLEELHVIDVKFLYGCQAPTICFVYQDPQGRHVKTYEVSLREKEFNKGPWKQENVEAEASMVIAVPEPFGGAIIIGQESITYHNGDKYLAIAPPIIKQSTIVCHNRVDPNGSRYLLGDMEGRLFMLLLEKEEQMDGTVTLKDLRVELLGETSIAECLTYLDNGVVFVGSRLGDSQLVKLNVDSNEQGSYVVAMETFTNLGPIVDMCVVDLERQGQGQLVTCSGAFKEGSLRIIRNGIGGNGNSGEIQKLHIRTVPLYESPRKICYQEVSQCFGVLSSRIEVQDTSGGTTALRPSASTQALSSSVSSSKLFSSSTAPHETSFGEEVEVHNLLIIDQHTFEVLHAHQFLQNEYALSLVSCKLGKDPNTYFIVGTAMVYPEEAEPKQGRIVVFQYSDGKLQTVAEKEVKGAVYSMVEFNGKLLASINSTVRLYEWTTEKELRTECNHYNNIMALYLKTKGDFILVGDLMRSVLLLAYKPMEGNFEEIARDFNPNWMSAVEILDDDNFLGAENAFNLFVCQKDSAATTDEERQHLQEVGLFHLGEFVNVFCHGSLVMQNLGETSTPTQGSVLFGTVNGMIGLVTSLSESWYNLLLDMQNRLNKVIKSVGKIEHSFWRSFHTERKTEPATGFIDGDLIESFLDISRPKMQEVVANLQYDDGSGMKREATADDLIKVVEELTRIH
T2 sequence (P11802 2-303 limits assumed): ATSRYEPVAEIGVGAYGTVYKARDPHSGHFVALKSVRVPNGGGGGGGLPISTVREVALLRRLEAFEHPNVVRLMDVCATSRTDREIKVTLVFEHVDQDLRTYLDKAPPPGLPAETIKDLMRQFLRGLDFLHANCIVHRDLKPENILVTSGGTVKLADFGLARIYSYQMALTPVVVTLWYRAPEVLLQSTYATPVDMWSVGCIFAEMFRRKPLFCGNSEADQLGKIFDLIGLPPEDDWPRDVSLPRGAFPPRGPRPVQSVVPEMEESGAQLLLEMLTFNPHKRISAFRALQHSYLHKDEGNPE
T2 sequence (P24385 whole entry partner): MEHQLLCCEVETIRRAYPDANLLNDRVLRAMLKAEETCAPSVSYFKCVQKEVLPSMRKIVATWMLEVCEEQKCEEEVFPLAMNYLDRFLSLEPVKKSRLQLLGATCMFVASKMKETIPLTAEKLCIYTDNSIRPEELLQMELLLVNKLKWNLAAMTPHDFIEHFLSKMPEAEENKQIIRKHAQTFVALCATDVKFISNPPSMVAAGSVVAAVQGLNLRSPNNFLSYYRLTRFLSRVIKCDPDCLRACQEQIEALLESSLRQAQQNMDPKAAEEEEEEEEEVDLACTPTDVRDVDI
T2 sequence (Q16531 2-1140 limits assumed, further chain): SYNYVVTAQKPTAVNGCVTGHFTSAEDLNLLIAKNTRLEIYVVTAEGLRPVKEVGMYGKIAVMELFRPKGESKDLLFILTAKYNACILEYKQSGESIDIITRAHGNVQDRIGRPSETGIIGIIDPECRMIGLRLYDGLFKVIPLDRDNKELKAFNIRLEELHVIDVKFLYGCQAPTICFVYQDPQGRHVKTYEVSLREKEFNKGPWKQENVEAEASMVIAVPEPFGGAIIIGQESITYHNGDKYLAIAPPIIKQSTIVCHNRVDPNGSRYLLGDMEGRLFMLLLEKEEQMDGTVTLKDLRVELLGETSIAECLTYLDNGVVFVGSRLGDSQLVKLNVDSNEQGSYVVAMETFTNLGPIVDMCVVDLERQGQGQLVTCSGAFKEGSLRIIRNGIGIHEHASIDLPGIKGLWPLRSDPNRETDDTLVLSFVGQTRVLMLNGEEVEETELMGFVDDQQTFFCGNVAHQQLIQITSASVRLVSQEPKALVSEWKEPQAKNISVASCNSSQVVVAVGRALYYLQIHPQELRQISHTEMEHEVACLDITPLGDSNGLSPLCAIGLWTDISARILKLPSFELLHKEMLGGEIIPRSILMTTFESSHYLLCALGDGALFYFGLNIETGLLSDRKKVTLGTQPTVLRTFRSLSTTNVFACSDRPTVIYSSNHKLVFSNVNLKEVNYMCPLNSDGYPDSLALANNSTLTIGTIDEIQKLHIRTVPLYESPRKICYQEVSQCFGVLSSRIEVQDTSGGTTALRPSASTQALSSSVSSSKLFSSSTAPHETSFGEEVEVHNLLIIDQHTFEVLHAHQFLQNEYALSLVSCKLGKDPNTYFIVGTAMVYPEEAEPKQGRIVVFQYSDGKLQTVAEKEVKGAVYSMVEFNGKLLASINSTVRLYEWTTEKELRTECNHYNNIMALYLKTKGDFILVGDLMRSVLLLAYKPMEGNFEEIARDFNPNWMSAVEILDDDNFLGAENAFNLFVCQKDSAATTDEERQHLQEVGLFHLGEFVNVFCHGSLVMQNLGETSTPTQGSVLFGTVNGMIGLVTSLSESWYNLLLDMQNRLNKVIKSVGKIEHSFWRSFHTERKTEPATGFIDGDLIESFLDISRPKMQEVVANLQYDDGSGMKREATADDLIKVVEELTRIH

In the case of `Cc1ccccc1C(=O)Nc1nc(C)c(C)s1` [B1-1, N-(4,5-dimethylthiazol-2-yl)-2-methylbenzamide], the Kd (commonly the constant that tells how readily two partners part at equilibrium) at DDB1 is greater than 100 µM. The same measure, in the same setting: for `Cc1ccccc1C(=O)Nc1nc(Br)c(C)s1` [B1-2, N-(4-bromo-5-methylthiazol-2-yl)-2-methylbenzamide] the value was greater than 100 µM; for `Cc1ccccc1C(=O)Nc1nc(C(C)C)c(C)s1` [B1-3, N-(4-isopropyl-5-methylthiazol-2-yl)-2-methylbenzamide], 50 to 100 µM. Same read-out and setting: the figure for `COC(=O)c1nc(NC(=O)c2ccccc2C)sc1C` [B1-4, methyl 5-methyl-2-(2-methylbenzamido)thiazole-4-carboxylate] is less than 20 µM; for `CCc1nc(NC(=O)c2ccccc2C)sc1C` [B1-5, N-(4-ethyl-5-methylthiazol-2-yl)-2-methylbenzamide] it is 20 to 50 µM. For the compound `CC(=O)Nc1ccccc1C(=O)Nc1nc(C)c(C)s1` [B1-6, 2-acetamido-N-(4,5-dimethylthiazol-2-yl)benzamide], at DDB1, the Kd fell in the range of 20 to 50 µM. With `Cc1ccccc1C(=O)Nc1nc(C2CC2)c(C)s1` [B1-7, N-(4-cyclopropyl-5-methylthiazol-2-yl)-2-methylbenzamide], the Kd at DDB1 is greater than 100 µM.

`Cc1ccccc1C(=O)Nc1cc(C)n(C)n1` [B1-8, N-(1,5-dimethyl-1H-pyrazol-3-yl)-2-methylbenzamide]: the Kd at DDB1 is greater than 100 µM. The same measure, in the same setting: for `CC(=O)Nc1ccccc1C(=O)Nc1ccc(C)cn1` [B1-31, 2-acetamido-N-(5-methylpyridin-2-yl)benzamide] the value was greater than 100 µM; for `COc1ccc(NC(=O)c2ccccc2NC(C)=O)nn1` [B1-53, 2-acetamido-N-(6-methoxypyridazin-3-yl)benzamide], 20 to 50 µM. Regarding `CNc1ccc(C(=O)Nc2nc(C)c(C)s2)c(NC(C)=O)c1` [B1-67, 2-acetamido-N-(4,5-dimethylthiazol-2-yl)-4-(methylamino)benzamide], the Kd on DDB1 is 20 to 50 µM.

`CC(=O)Nc1ccccc1C(=O)Nc1ccc(N(C)C)nn1` [B1-71, 2-acetamido-N-(6-(dimethylamino)pyridazin-3-yl)benzamide] had a Kd on DDB1 of 20 to 50 µM. The same measure, in the same setting: the figure for `CC(=O)Nc1ccccc1C(=O)Nc1ccc(C)c(C2CC2)n1` [B1-73, 2-acetamido-N-(6-cyclopropyl-5-methylpyridin-2-yl)benzamide] is greater than 100 µM.

In turn, `CC(=O)NCCCCCCCCC(=O)Nc1ccccc1C(=O)Nc1nc(C)c(C)s1` [B1-79, 2-(9-acetamidononanamido)-N-(4,5-dimethylthiazol-2-yl)benzamide] gave a Kd at DDB1 of 20 to 50 µM. `CC(=O)NCCOCCOCCNc1cccc(C(=O)Nc2nc(C)c(C)s2)c1C` [B1-80, 3-((2-(2-(2-acetamidoethoxy)ethoxy)ethyl)amino)-N-(4,5-dimethylthiazol-2-yl)-2-methylbenzamide] yielded a Kd at DDB1 of less than 20 µM. Turning to `COc1ccc(NC(=O)c2ccccc2NC(C)=O)nc1` [B1-83, 2-acetamido-N-(5-methoxypyridin-2-yl)benzamide], the Kd at DDB1 lay in the range of 20 to 50 µM. Regarding `CNc1ccc(C(=O)Nc2ccc(C)cn2)c(NC(C)=O)c1` [B1-88, 2-acetamido-4-(methylamino)-N-(5-methylpyridin-2-yl)benzamide], the Kd at DDB1 is less than 20 µM. On the same count and under the same terms, the figure for `Cc1cnc(NC(=O)c2ccc(NCCOCCOCCOCCOCCOCCN)cc2C)s1` [BL1-24, 4-((17-amino-3,6,9,12,15-pentaoxaheptadecyl)amino)-2-methyl-N-(5-methylthiazol-2-yl)benzamide] is less than 20 µM. With `Cc1cc(NCCOCCOCCOCCOCCOCCN)ccc1C(=O)Nc1nc(C)c(C)s1` [BL1-36, 4-((17-amino-3,6,9,12,15-pentaoxaheptadecyl)amino)-N-(4,5-dimethylthiazol-2-yl)-2-methylbenzamide], the Kd at DDB1 is less than 20 µM.

`COC(=O)c1nc(NC(=O)c2ccc(NCCOCCOCCOCCOCCOCCN)cc2C)sc1C` [BL1-38, methyl 2-(4-((17-amino-3,6,9,12,15-pentaoxaheptadecyl)amino)-2-methylbenzamido)-5-methylthiazole-4-carboxylate]: on DDB1, the dissociation constant Kd was less than 20 µM. With `Cc1cnc(NC(=O)c2ccc(NCCOCCOCCOCCOCCOCCNC(=O)CN3CCN(Cc4ccc(Nc5ncc(F)c(-c6cc(F)c7nc(C)n(C(C)C)c7c6)n5)nc4)CC3)cc2C)s1` [CPD-020, 4-((1-(4-((6-((5-Fluoro-4-(4-fluoro-1-isopropyl-2-methyl-1H-benzo[d]imidazol-6-yl)pyrimidin-2-yl)amino)pyridin-3-yl)methyl)piperazin-1-yl)-2-oxo-6,9,12,15,18-pentaoxa-3-azaicosan-20-yl)amino)-2-methyl-N-(5-methylthiazol-2-yl)benzamide], at DDB1, the Kd is less than 20 µM. Further, the “CyclinD1 Degradation (10 μM)” value in the test on cyclin D1 (10 μM) is given as “D (protein percentage degradation < 30%)”. Moreover, on CDK4 (10 μM, read-out: CDK4 Degradation (10 μM)), the inhibition at 10 µM was less than 30%. `CC(=O)c1c(C)c2cnc(Nc3ccc(N4CCN(CC(=O)NCCCCCNc5cc(C#N)ccc5C(=O)Nc5ccc(N(C)C)nn5)CC4)cn3)nc2n(C2CCCC2)c1=O` [CPD-376, 2-((5-(2-(4-(6-((6-Acetyl-8-cyclopentyl-5-methyl-7-oxo-7,8-dihydropyrido[2,3-d]pyrimidin-2-yl)amino)pyridin-3-yl)piperazin-1-yl)acetamido)pentyl)amino)-4-cyano-N-(6-(dimethylamino)pyridazin-3-yl)benzamide]: the “CyclinD1 Degradation (200 nM)” value with cyclin D1 is “A (protein percentage degradation >=80%)”. Moreover, the inhibition at 0.2 µM at CDK4 lay in the range of 50 to 80%. As for `CNc1ccc(C(=O)Nc2ccc(N(C)C)nn2)c(NCCCCCNC(=O)CN2CCN(c3ccc(Nc4ncc5c(C)c(C(C)=O)c(=O)n(C6CCCC6)c5n4)nc3)CC2)c1` [CPD-377, 2-((5-(2-(4-(6-((6-Acetyl-8-cyclopentyl-5-methyl-7-oxo-7,8-dihydropyrido[2,3-d]pyrimidin-2-yl)amino)pyridin-3-yl)piperazin-1-yl)acetamido)pentyl)amino)-N-(6-(dimethylamino)pyridazin-3-yl)-4-(methylamino)benzamide], in the test on cyclin D1, the “CyclinD1 Degradation (200 nM)” value is “A (protein percentage degradation >=80%)”. On CDK4, the inhibition at 0.2 µM is 50 to 80%. In the case of `CC(=O)c1c(C)c2cnc(Nc3ccc(N4CCN(CC(=O)NCCCCCNc5cc(Cl)ccc5C(=O)Nc5ccc(C)c(C6CC6)n5)CC4)cn3)nc2n(C2CCCC2)c1=O` [CPD-378, 2-((5-(2-(4-(6-((6-acetyl-8-cyclopentyl-5-methyl-7-oxo-7,8-dihydropyrido[2,3-d]pyrimidin-2-yl)amino)pyridin-3-yl)piperazin-1-yl)acetamido)pentyl)amino)-4-chloro-N-(6-cyclopropyl-5-methylpyridin-2-yl)benzamide], the “CyclinD1 Degradation (200 nM)” value with cyclin D1 is “B (protein percentage degradation <80%, and >=50%)”. For the same compound, on CDK4, the inhibition at 0.2 µM is less than 30%. As for `CC(=O)c1c(C)c2cnc(Nc3ccc(N4CCN(CC(=O)NC(C)CCCCNc5cc(Cl)ccc5C(=O)Nc5ccc(C)c(C6CC6)n5)CC4)cn3)nc2n(C2CCCC2)c1=O` (stereo not shown) [CPD-379, 2-((5-(2-(4-(6-((6-Acetyl-8-cyclopentyl-5-methyl-7-oxo-7,8-dihydropyrido[2,3-d]pyrimidin-2-yl)amino)pyridin-3-yl)piperazin-1-yl)acetamido)hexyl)amino)-4-chloro-N-(6-cyclopropyl-5-methylpyridin-2-yl)benzamide], the “CyclinD1 Degradation (200 nM)” value with cyclin D1 is “A (protein percentage degradation >=80%)”. In addition, the inhibition at 0.2 µM on CDK4 was 50 to 80%.
